Assay results from patent US20110280940A1, “Di-Vanilloyl And Tri-Vanilloyl Derivatives For Use In Anti-Cancer Therapy” (priority 2008, published 2011).

Columns and labels:
[1] = tested on: Eleven human cancer cell lines; assay: MTT colorimetric assay, across the eleven human cancer cell lines; assay type: cell-based; details: mean ± SEM over the 11 human cancer cell lines, MTT, 72 hours; read-out: In Vitro IC50 Growth Inhibitory Values, m ± SEM
Excerpt: (§1) The amount of formazan obtained at the end of the experiment, measured by means of a spectrophotometer, is directly proportional to the number of living cells. Optical density determination thus enabled a quantitative measurement of the effect of the investigated compounds as compared to the control condition (untreated cells) and/or to other reference compounds. Eleven human cancer cell lines and one mouse melanoma cell-line (B16F10) described in Table 2 were used in the following MTT tests. These cancer cell lines cover seven histological cancer types including prostate (PC3), glioma (Hs683, T98G, U373, melanoma (VM21, VM28), non-small-cell-lung (A549), breast (MCF-7), colon (LoVo) and oesophageal (OE21, OE33) cancers. […] Each cell line was seeded in its appropriate culture medium. The detailed experimental procedure was the following: after a 24-hour period of incubation at 37° C., the culture medium was replaced by 100 μl of fresh medium in which the tested compound was previously dissolved, at the following molar concentrations: 10^-8 […] and 10^-4 M. Each experiment was performed in sestuplicates (6 times). After 72 hours of incubation at 37° C. with (experimental conditions) or without (control condition) the compound to be tested, the medium was replaced by 100 μl MTT dissolved in RPMI (1640 without phenol red) at a concentration of 0.5 or 1 mg/ml. The micro-wells were subsequently incubated during 3 hours and a half at 37° C. and centrifuged at 1300 rpm during 10 minutes. MTT was removed and formazan crystals formed were dissolved in 100 μl DMSO. The micro-wells were shaken for 5 minutes and read on a spectrophotometer at wavelengths of 570 nm (maximal formazan absorbance). For each experimental condition, the mean optical density was calculated, allowing the determination of the percentage of remaining living cells in comparison to the control. […] The origin of all the cell lines we used, along with their biological characteristics, and the validation procedures of the MTT colorimetric assay as employed here are fully detailed in Van Quaquebeke et al., 2005, J Med Chem 48:849-856; […]

[2] = tested on: B16F10 melanoma cell-line; assay: MTT colorimetric assay, overall cell growth, B16F10; assay type: cell-based, mouse; details: Mus musculus, B16-F10, 72 hours of incubation, read-out: In Vitro IC50 Growth Inhibitory Values, B16F10
Excerpt: as §1

[3] = tested on: MCF-7 breast cancer cells; assay: MTT colorimetric assay, overall cell growth, MCF-7; assay type: cell-based, human; details: Homo sapiens, MCF7, 72 hours of incubation, read-out: In Vitro IC50 Growth Inhibitory Values, MCF-7
Excerpt: as §1

U373 glioblastoma cells = assay: MTT colorimetric assay, overall cell growth, U373; assay type: cell-based, human; details: Homo sapiens, U373 MG, 72 hours of incubation, read-out: In Vitro IC50 Growth Inhibitory Values, U373
Excerpt: as §1

[4] = tested on: OE33 oesophageal cancer cells; assay: MTT colorimetric assay, overall cell growth, OE33; assay type: cell-based, human; details: Homo sapiens, OE33, 72 hours of incubation, read-out: In Vitro IC50 Growth Inhibitory Values, OE33
Excerpt: as §1

[5] = tested on: A549 non-small-cell-lung cancer cell line; assay: Cellular imaging (quantitative videomicroscopy), global growth ratio, A549; assay type: cell-based; details: Homo sapiens, 72 h, read-out: Global Grow Ratio Treated/Ct (GGR T/Ct) determined by Video Quantitative microscopy, A549
Excerpt: (§2) As the MTT test is based on the mitochondria functions, we also investigated the effects of the di- and tri-vanilloyl derivatives according to the invention on cell proliferation, migration and morphology by means of a cellular imaging approach (Debeir et al., Cytometry 60:29-40, 2004; Debeir et al., IEEE Trans Med Imaging 24:697-711, 2005) either in the human U373-MG glioma cell line, which is apoptosis-resistant but autophagy-sensitive (Lefranc F et al., Neurosurgery 2008) and in the human A549 non-small-cell-lung cancer cell line, which is apoptosis-resistant and autophagy-resistant (Mijatovic T et al., Neoplasia 2006, May; 8(5):402-12).
(§3) Investigations have also been performed in human normal fibroblasts (WS1 and WI38—see Tables 4 and 5). Cellular imaging relied on the use of computer-assisted phase-contrast microscopy making possible to film the behaviour of living cells in culture dishes for several days.
(§4) Cells were seeded in a 25-cm^2 flask at a low density, treated or not with the vanilloyl-esters invention (at a concentration of 50 μM) and filmed thereafter for a period of 72 h. The experiment was conducted in quadruplicates (in duplicates for DLT-95 compounds).
(§5) The behaviour of the cells, in terms of morphology, growth and death were thus investigated. The effect on the overall growth was measured by counting the number of cells on the first (0 h) and the last image (72 h) of each film. The global growth ratio (GGR) was then deduced by dividing the number of cells on the last image by the number of cells on the first image. The ratio GGRtreated cells/GGRcontrol cells, was further calculated thereby obtaining a value that describes the effect of compounds of the present invention on the overall cell growth. The methodology is fully described and validated in Debeir et al., 2008, Exp Cell Res 314:2985-2998 and Mathieu et al., 2009, J Cell Mol Med, Feb. 20, 2009.
(§6) Illustrative pictures (time=0 h and 72 h) of glioblastoma and normal fibroblast cell line left untreated or treated with poly-vanillic compounds according to the invention (50 μM) are provided in FIG. 1 (U373 glioblastoma) and FIG. 2 (normal fibroblasts). The GGR parameter analyses confirmed the marked impairment of cell growth in both cancer cell lines of the poly-vanillic compounds according to the invention (Table 5).

[6] = tested on: A549 non-small-cell-lung cancer cells; assay: MTT colorimetric assay, overall cell growth, A549; assay type: cell-based, human; details: Homo sapiens, A549, 72 hours of incubation, read-out: In Vitro IC50 Growth Inhibitory Values, A549
Excerpt: as §1

VM48 melanoma cells = assay: MTT colorimetric assay, overall cell growth, VM48; assay type: cell-based, human; details: Homo sapiens; MTT, 72 hours of incubation; read-out: In Vitro IC50 Growth Inhibitory Values, VM48
T98G glioma cells = assay: MTT colorimetric assay, overall cell growth, T98G; assay type: cell-based, human; details: Homo sapiens, T98G, 72 hours of incubation, read-out: In Vitro IC50 Growth Inhibitory Values, T98G
Excerpt: as §1

Hs683 glioma cells = assay: MTT colorimetric assay, overall cell growth, Hs683; assay type: cell-based, human; details: Homo sapiens, Hs 683, 72 hours of incubation, read-out: In Vitro IC50 Growth Inhibitory Values, Hs683
Excerpt: as §1

[7] = tested on: OE21 oesophageal cancer cells; assay: MTT colorimetric assay, overall cell growth, OE21; assay type: cell-based, human; details: Homo sapiens, OE21, 72 hours of incubation, read-out: In Vitro IC50 Growth Inhibitory Values, OE21
Excerpt: as §1

LoVo colon cancer cells = assay: MTT colorimetric assay, overall cell growth, LoVo; assay type: cell-based, human; details: Homo sapiens, LoVo, 72 hours of incubation, read-out: In Vitro IC50 Growth Inhibitory Values, LoVo
Excerpt: as §1

U373-MG glioma cell line = assay: Cellular imaging (quantitative videomicroscopy), global growth ratio, U373; assay type: cell-based; details: Homo sapiens, 50 μM, 72 h, read-out: Global Grow Ratio Treated/Ct (GGR T/Ct) determined by Video Quantitative microscopy, U373
Excerpt: as §2, §3, §4, §5, §6

[8] = tested on: PC-3 prostate cancer cells; assay: MTT colorimetric assay, overall cell growth, PC-3; assay type: cell-based, human; details: Homo sapiens, 72 hours of incubation, read-out: In Vitro IC50 Growth Inhibitory Values, PC-3
Excerpt: as §1

VM21 melanoma cells = assay: MTT colorimetric assay, overall cell growth, VM21; assay type: cell-based, human; details: Homo sapiens; MTT, 72 hours of incubation; read-out: In Vitro IC50 Growth Inhibitory Values, VM21
Excerpt: as §1

[9] = tested on: cancer cells versus normal fibroblasts; assay: Anti-proliferative, anti-migratory and anti-kinase effects, cancer cells versus normal fibroblasts; assay type: cell-based, human; details: anti-proliferative
Excerpt: The compounds of the invention were subsequently evaluated for their 1) anti-proliferative effect (by means of the colorimetric MTT assay), 2) pro-autophagic and pro-apoptotic effect (by means of flow cytometry analyses), and 3) anti-migratory effect (by means of quantitative videomicroscopy), in the following human cancer cell-lines: a) U373, T98G and Hs683 glioblastoma cells, b) VM21 and VM48 melanoma cells, c) PC-3 prostate cancer cells, d) MCF-7 breast cancer cells, e) LoVo colon cancer cells, f) OE21 oesophageal cancer cells, and g) A549 NSCLC cancer cells, as well as in human WS1 and WI38 normal fibroblasts (i.e. non-cancer cells).
The best current hits, DLT12 and DLT4, display anti-proliferative, anti-migratory effects and anti-kinase effects which are ˜10 times more pronounced in cancer cells than in normal fibroblasts. […] FIG. 1 illustrates the data obtained with respect to the human U373 glioblastoma model, while FIG. 2 illustrates the data obtained in human normal fibroblasts. […] DLT-95 and its derivatives DLT-95-F and DLT-95-Cl were also shown to have a significant effect on the proliferation 7 different human cancer cell-lines.

IC50 [1]	IC50 [2]	IC50 [3]	IC50 (U373 glioblastoma cells)	IC50 [4]	IC50 [6]	IC50 (VM48 melanoma cells)	IC50 (T98G glioma cells)	IC50 (Hs683 glioma cells)	IC50 [7]	IC50 (LoVo colon cancer cells)	IC50 [8]	IC50 (VM21 melanoma cells)	SMILES	activity at 50 µM [5]	activity at 50 µM (U373-MG glioma cell line)	effects more pronounced in cancer cells than in normal fibroblasts [9]
47 ± 4 µM	49 µM	47 µM	20 µM	66 µM	43 µM	36 µM	70 µM	57 µM	41 µM	44 µM	59 µM	35 µM	COc1cc(C(=O)OC2CCCC[C@@H]2OC(=O)c2ccc(O)c(OC)c2)ccc1O (stereo partly drawn) [DLT7, S,S-trans-cyclohexane-1,2-diyl bis-(4-hydroxy-3-methoxybenzoate)]	20%	20%	
> 100 µM	59 µM	75 µM	53 µM	77 µM	76 µM	72 µM	> 100 µM	> 100 µM	45 µM	64 µM	77 µM	77 µM	COc1cc(C(=O)O[C@@H]2CCCC[C@H]2OC(=O)c2ccc(O)c(OC)c2)ccc1O [DLT8, R,R-trans-cyclohexane-1,2-diyl bis-(4-hydroxy-3-methoxybenzoate)]	50%	50%	
46 µM						38 µM						32 µM	COc1cc(C(=O)OCCCCCCCOC(=O)c2ccc(O)c(OC)c2)ccc1O [DLT12, Heptane-1,7-diyl bis-(4-hydroxy-3-methoxybenzoate)]	20%	20%	~10 times
